According to the supplement of paper PMC11208160:

Experiment: recombinant UMI read abundance after kanamycin selection (control-corrected) (log10(CPM+1)); higher = more efficient recombination; extreme values may be limits of the assay; sequences stand for … in AGTGCAGAGAAAATCGGCCAGTTTTCTCTGCCTGCAGTCCGCATGCCGTGGGACCCCTTGGGTTCTAACCTGTTGCCTAGATTTATGCAGCGGACTGCCTTTCTCCCAAAGTGATAAACCGG…AGGTTGGTTTCACT; site = the 11-nt donor
Procedure, shortened: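 Pooled Escherichia coli screen of donor and donor-binding-loop pairs for the IS621 bridge recombinase. Each pair sits with a 12-nt UMI on a plasmid carrying a promoterless kanamycin gene. The library was co-electroporated with a target plasmid encoding a fixed target and T7-inducible recombinase, then plated with IPTG (0.07 mM) plus kanamycin, or unselected, each in two replicates. Recombinant UMIs were PCR-amplified across the donor–target junction and sequenced. Counts became CPM, averaged over replicates, scaled by control-derived factors and reported as log10(CPM+1).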

Row | Sequence | recombinant UMI read abundance (log10)
1 | GTAGGTACATGGACCGGTTTTCCCGGTAATCCGTATTTGAC (site GTAAGTACTGT) | 1.98
2 | GTAGGTACATGGACCGGTTTTCCCGGTAATCCGTATTTGAC (site GTACGTACTGT) | 0.584
3 | GTAGGTACATGGACCGGTTTTCCCGGTAATCCGTATTTGAC (site GTAGATACTGT) | 1.54
4 | GTAGGTACATGGACCGGTTTTCCCGGTAATCCGTATTTGAC (site GTAGCTACTGT) | 0.853
5 | GTAGGTACATGGACCGGTTTTCCCGGTAATCCGTATTTGAC (site GTAGGAACTGT) | 1.59
6 | GTAGGTACATGGACCGGTTTTCCCGGTAATCCGTATTTGAC (site GTAGGCACTGT) | 2.64
7 | GTAGGTACATGGACCGGTTTTCCCGGTAATCCGTATTTGAC (site GTAGGGACTGT) | 1.8
8 | GTAGGTACATGGACCGGTTTTCCCGGTAATCCGTATTTGAC (site GTAGGTACTAT) | 2.23
9 | GTAGGTACATGGACCGGTTTTCCCGGTAATCCGTATTTGAC (site GTAGGTACTCT) | 0.304
10 | GTAGGTACATGGACCGGTTTTCCCGGTAATCCGTATTTGAC (site GTAGGTACTGA) | 1.23
11 | GTAGGTACATGGACCGGTTTTCCCGGTAATCCGTATTTGAC (site GTAGGTACTGC) | 1.5
12 | GTAGGTACATGGACCGGTTTTCCCGGTAATCCGTATTTGAC (site GTAGGTACTGG) | 0.351
13 | GTAGGTACATGGACCGGTTTTCCCGGTAATCCGTATTTGAC (site GTAGGTACTGT) | 2.01
14 | GTAGGTACATGGACCGGTTTTCCCGGTAATCCGTATTTGAC (site GTAGGTACTTT) | 0
15 | GTAGGTACATGGACCGGTTTTCCCGGTAATCCGTATTTGAC (site GTAGGTCCTGT) | 0
16 | GTAGGTACATGGACCGGTTTTCCCGGTAATCCGTATTTGAC (site GTAGGTGCTGT) | 2.02
17 | GTAGGTACATGGACCGGTTTTCCCGGTAATCCGTATTTGAC (site GTAGGTTCTGT) | 1.76
18 | GTAGGTACATGGACCGGTTTTCCCGGTAATCCGTATTTGAC (site GTAGTTACTGT) | 1.2
19 | GTAGGTACATGGACCGGTTTTCCCGGTAATCCGTATTTGAC (site GTATGTACTGT) | 0.986

Row | Sequence | recombinant UMI read abundance (log10)
20 | GTAGGTACATGGACCGGTTTTCCCGGTAATCCGTATTTGAC (site GTCGGTACTGT) | 1.16
21 | GTAGGTACATGGACCGGTTTTCCCGGTAATCCGTATTTGAC (site GTGGGTACTGT) | 2.19
22 | GTAGGTACATGGACCGGTTTTCCCGGTAATCCGTATTTGAC (site GTTGGTACTGT) | 1.96
23 | GTAGGTACATGGACCGGTTTTCCCGGTAATCCGTATTTGAC (site TTAGGTACTGT) | 1.65
24 | GTAGGTACATGGACCGGTTTTCCCGGTAATCCGTATTTGAG (site GTAGGTACTAT) | 0.994
25 | GTAGGTACATGGACCGGTTTTCCCGGTAATCCGTATTTGAG (site GTAGGTACTCT) | 1.29
26 | GTAGGTACATGGACCGGTTTTCCCGGTAATCCGTATTTGAG (site GTAGGTACTGT) | 1.42
27 | GTAGGTACATGGACCGGTTTTCCCGGTAATCCGTATTTGAG (site GTAGGTACTTT) | 0.806
28 | GTAGGTACATGGACCGGTTTTCCCGGTAATCCGTATTTGAT (site GTAGGTACTAT) | 1.87
29 | GTAGGTACATGGACCGGTTTTCCCGGTAATCCGTATTTGAT (site GTAGGTACTCT) | 0.18
30 | GTAGGTACATGGACCGGTTTTCCCGGTAATCCGTATTTGAT (site GTAGGTACTGT) | 0.596
31 | GTAGGTACATGGACCGGTTTTCCCGGTAATCCGTATTTGAT (site GTAGGTACTTT) | 0.00769
32 | GTAGTACCATGGACCGGTTTTCCCGGTAATCCGTATTTGAC (site CTAGTATCTGT) | 0
33 | GTAGTACCATGGACCGGTTTTCCCGGTAATCCGTATTTGAC (site GTAGTACCTGT) | 0
34 | GTAGTCACATGGACCGGTTTTCCCGGTAATCCGTATTTGCG (site GTAGTCACTCG) | 2.1
35 | GTAGTCACATGGACCGGTTTTCCCGGTAATCCGTATTTGCG (site GTAGTCCCTCG) | 0.0197
36 | GTAGTCACATGGACCGGTTTTCCCGGTAATCCGTATTTGCG (site GTAGTCGCTCG) | 1.67
37 | GTAGTCACATGGACCGGTTTTCCCGGTAATCCGTATTTGCG (site GTAGTCTCTCG) | 2.62
38 | GTAGTGGCATGGACCGGTTTTCCCGGTAATCCGTATTTGCG (site GTAGTAGCTCG) | 2.37
